Test systems include CCRF-CEM; HL-60; HOP-92; LXFL 529; Malme-3M; NCI-H460; OVCAR-4; SF-268; SF-539; SR; TK-10; UACC-257; UO-31; HOP-62; LOX IMVI; RPMI-8226; RXF 393; A498.
Holding throughout (assay): NCI-60 cell line screen, 48 h

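Exposure lasted 48 hours, with cells grown in 96-well plates and compounds tested at five concentrations. At the GI50, growth is halved.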 Calls of active or inactive are those of the source. Rule as the data show it: active = GI50 up to about 1.1 µM and inactive = higher.

In the case of `Cc1ccc2nc3c(Cl)cc(=O)cc-3sc2c1`, the GI50 is 1.96 µM (inactive) in the test with CCRF-CEM; 5.77 µM (inactive) in the test on HL-60; 21.8 µM (inactive) in the test with HOP-92; 18.7 µM (inactive) in the test with LXFL 529; 30 µM (inactive) in the test with Malme-3M; 29.4 µM (inactive) in the test with NCI-H460. For the same compound, the GI50 with OVCAR-4 was 16.1 µM (inactive); with SF-268, 23.6 µM (inactive); in the test on SF-539, 3.38 µM (inactive); with SR, > 10 µM (inactive); with TK-10, 28.1 µM (inactive); with UACC-257, 20.2 µM (inactive). The GI50 in the test on UO-31 is 34 µM (inactive).

Consider `COc1ccc(-c2csc(=[N+]3CCCCC3)s2)cc1`, for which the GI50 with CCRF-CEM is 1.62 µM (inactive); with HL-60, 2.29 µM (inactive); with HOP-62, 2.54 µM (inactive); with HOP-92 it was 2.38 µM (inactive); with LOX IMVI, 4.83 µM (inactive); in the test on LXFL 529 it was 3.07 µM (inactive). Besides, the GI50 in the test with Malme-3M is 2.76 µM (inactive); with NCI-H460, 3.71 µM (inactive); with OVCAR-4, 4.48 µM (inactive); in the test with RPMI-8226, 2.11 µM (inactive); with RXF 393, 4.14 µM (inactive); in the test with SF-268, 1.42 µM (inactive). In addition, the GI50 was 4.56 µM (inactive) in the test with SF-539; 2.26 µM (inactive) in the test on SR; 29.3 µM (inactive) in the test on TK-10; 3.34 µM (inactive) with UACC-257; > 100 µM (inactive) in the test on UO-31.

As for `CC1(C)CCCC2(C)[C@@H]1CC[C@@]13CC(=O)[C@@](C)(CC[C@@H]21)C3` (some centres undefined), the GI50 with CCRF-CEM is > 100 µM (inactive); in the test on HL-60 it was 52.4 µM (inactive); with HOP-62, 82.2 µM (inactive); in the test with HOP-92, > 100 µM (inactive); in the test with LOX IMVI it was 39.4 µM (inactive); in the test with LXFL 529, 80.2 µM (inactive). The GI50 in the test with Malme-3M was > 100 µM (inactive); in the test on NCI-H460 it was 42.1 µM (inactive); in the test with OVCAR-4 it was 87.9 µM (inactive); with RPMI-8226, 57 µM (inactive); in the test with RXF 393, 18.3 µM (inactive); with SF-268, 95.7 µM (inactive). Moreover, the GI50 in the test on SF-539 was > 100 µM (inactive); with SR, 42.5 µM (inactive); in the test on TK-10, > 100 µM (inactive); with UACC-257, 32.7 µM (inactive); in the test with UO-31, > 100 µM (inactive).

On to `O=c1c2cc(Br)cc(Br)c2nc(CCCl)n1-c1ccc(O)c([N+](=O)[O-])c1`, for which the GI50 with A498 is 25.8 µM (inactive); in the test on CCRF-CEM, 20.7 µM (inactive); with HL-60, 23.3 µM (inactive); in the test with HOP-62, 18.7 µM (inactive); in the test with HOP-92, 24 µM (inactive); in the test with LXFL 529, 16.1 µM (inactive). Moreover, the GI50 in the test with Malme-3M was 19.1 µM (inactive); with NCI-H460, 21 µM (inactive); in the test with OVCAR-4, 15.5 µM (inactive); in the test with RPMI-8226, 30.2 µM (inactive); in the test with SF-268, 19.3 µM (inactive); with SF-539, 21.4 µM (inactive). The GI50 in the test with SR was 41.5 µM (inactive); in the test on TK-10 it was 18.5 µM (inactive); in the test on UACC-257 it was 15.1 µM (inactive); in the test with UO-31, 19.7 µM (inactive).

Consider `O=C(O)c1ccc2c(c1)C(=O)N(c1ccc(S(=O)(=O)c3ccc(N4C(=O)c5ccc(C(=O)O)cc5C4=O)cc3)cc1)C2=O`, for which the GI50 in the test on A498, with CCRF-CEM, in the test on HL-60, with HOP-62, in the test with LOX IMVI and in the test on LXFL 529 was > 100 µM (inactive) each time. Also, the GI50 with Malme-3M, in the test with NCI-H460, with OVCAR-4, with RPMI-8226, in the test with RXF 393 and in the test on SF-268 was > 100 µM (inactive) throughout. Moreover, the GI50 in the test on SF-539, with SR, in the test with TK-10, in the test on UACC-257 and in the test on UO-31 was > 100 µM (inactive) each time.

Turning to `C/C(=N/NS(=O)(=O)c1ccc(C)cc1)c1cccc[n+]1[O-]`, the GI50 with A498, in the test with CCRF-CEM, in the test on HL-60, with HOP-62, in the test with HOP-92 and in the test on LXFL 529 was > 100 µM (inactive) throughout. In addition, the GI50 with NCI-H460, in the test with OVCAR-4, in the test on RPMI-8226, in the test with SF-268, in the test on SF-539 and with SR was > 100 µM (inactive) in each case. The GI50 in the test with TK-10, in the test with UACC-257 and in the test on UO-31 was > 100 µM (inactive) each time.

Regarding `O=P1(c2ccccc2)CCCCC1`, the GI50 in the test on A498, with CCRF-CEM, with HL-60, in the test with HOP-62, in the test on LOX IMVI and in the test on LXFL 529 was > 100 µM (inactive) in each case. Also, the GI50 in the test on Malme-3M, in the test on NCI-H460, in the test on OVCAR-4, in the test on RPMI-8226, in the test with RXF 393 and in the test with SF-539 was > 100 µM (inactive) in each case. The GI50 with SR, in the test on TK-10, in the test on UACC-257 and in the test on UO-31 was > 100 µM (inactive) each time.

Regarding `CC(=O)OCC1OC(n2cccnc2=O)C(OC(C)=O)C1OC(C)=O` (centres undefined), the GI50 with A498, in the test on CCRF-CEM, with HL-60, in the test on HOP-62, with HOP-92 and with LOX IMVI was > 100 µM (inactive) each time. For the same compound, the GI50 with LXFL 529, in the test on Malme-3M, in the test on NCI-H460, with OVCAR-4, in the test on RPMI-8226 and in the test with RXF 393 was > 100 µM (inactive) in each case. Further, the GI50 in the test on SF-268, in the test on SR, with TK-10, with UACC-257 and with UO-31 was > 100 µM (inactive) in each case.

Take `C(=C1\CCC/C(=C/c2ccccc2)C1=NNc1ccccc1)/c1ccccc1`: the GI50 was > 100 µM (inactive) in the test with A498; > 100 µM (inactive) with CCRF-CEM; > 100 µM (inactive) in the test on HL-60; 46.7 µM (inactive) in the test on HOP-62; > 100 µM (inactive) in the test with HOP-92; > 100 µM (inactive) in the test with LOX IMVI. Also, the GI50 is > 100 µM (inactive) in the test on LXFL 529; > 100 µM (inactive) in the test on Malme-3M; > 100 µM (inactive) in the test on NCI-H460; > 100 µM (inactive) in the test on OVCAR-4; > 100 µM (inactive) with RPMI-8226; 38.2 µM (inactive) in the test with RXF 393. The GI50 in the test with SF-268, with SF-539, in the test with TK-10, with UACC-257 and in the test with UO-31 was > 100 µM (inactive) throughout.

On to `COc1cc2ccnc(-c3c4ccccc4c(N)c4c(OC)c(OC)ccc34)c2cc1OC`, for which the GI50 is 3.02 µM (inactive) in the test on A498; 2.37 µM (inactive) in the test with CCRF-CEM; 1.39 µM (inactive) in the test on HL-60; 2.96 µM (inactive) in the test on HOP-62; 1.79 µM (inactive) in the test on HOP-92; 1.52 µM (inactive) in the test on LOX IMVI. The GI50 with LXFL 529 is 3.6 µM (inactive); in the test on Malme-3M it was 3.32 µM (inactive); with NCI-H460, 1.79 µM (inactive); in the test on OVCAR-4 it was 1.97 µM (inactive); in the test with RXF 393, 2.4 µM (inactive); in the test with SF-268, 3.01 µM (inactive). The GI50 is 2.09 µM (inactive) in the test with SF-539; 1.8 µM (inactive) in the test on SR; 10.4 µM (inactive) in the test with TK-10; 2.32 µM (inactive) in the test on UACC-257; 3.18 µM (inactive) in the test with UO-31.

Turning to `COc1cc(C2c3cc4c(cc3[C@@H](Nc3ccc(N(C)C)cc3)[C@H]3COC(=O)C23)OCO4)cc(OC)c1O` (some centres undefined), the GI50 with A498 was 0.551 µM (active); in the test on CCRF-CEM, 0.153 µM (active); in the test on HL-60, 0.193 µM (active); in the test with HOP-62, 0.103 µM (active); in the test on HOP-92, 0.36 µM (active); in the test on LOX IMVI it was 0.817 µM (active). The GI50 was 2.15 µM (inactive) in the test on LXFL 529; 1.41 µM (inactive) with Malme-3M; 0.0214 µM (active) with NCI-H460; 9.35 µM (inactive) with OVCAR-4; 0.951 µM (active) with RXF 393; 0.351 µM (active) with SF-268. In addition, the GI50 with SF-539 was 0.316 µM (active); in the test on SR, 0.0127 µM (active); in the test with TK-10, 2.64 µM (inactive); with UACC-257 it was 2.23 µM (inactive); with UO-31, 0.607 µM (active).

With `COc1cc(C(=O)C/C(CCC(=O)Nc2ccccc2[N+](=O)[O-])=N\NC(=O)C(N)=O)ccc1O`, the GI50 in the test on CCRF-CEM was > 100 µM (inactive); in the test with HL-60 it was > 100 µM (inactive); in the test on HOP-62 it was > 100 µM (inactive); in the test with HOP-92 it was 65.3 µM (inactive); in the test with LOX IMVI, > 100 µM (inactive); with LXFL 529, > 100 µM (inactive). Further, the GI50 with NCI-H460 is > 100 µM (inactive); in the test with OVCAR-4 it was > 100 µM (inactive); in the test with RXF 393, 76.4 µM (inactive); with SF-268, > 100 µM (inactive); in the test with SF-539, > 100 µM (inactive); with SR, > 100 µM (inactive). The GI50 with TK-10, in the test on UACC-257 and with UO-31 was > 100 µM (inactive) throughout.

(Values after ChEMBL document CHEMBL1201862, “PubChem BioAssay data set” (2004).)
